How the values were obtained:
[1] = Pharmacokinetics in blood; type: in vivo, mice
Procedure: The pharmacokinetics profile of ^64Cu-PSMA-CM in blood circulation was tested by injecting 3.7 MBq of ^64Cu-PSMA-CM into Balb/c male mice (n = 4).
An amount of 3.7 MBq (250 μL) of ^64Cu-PSMA-CM was intravenously injected into Babl/c male mice (n = 4). Blood was collected from the ophthalmic artery at different time points, then the radioactivity of blood was weighed and measured by a γ-counter. An injection of 2.5 μL was taken out as standard. The results were expressed as the percentage of injected dose per gram (%ID/g).
A two-phase decay Equation (1) in Graph Pad software (Graph Pad prism 5) was used to serve as the two-compartment model which models biological process of the probe by fitting the ID%/g versus to time of ^64Cu-PMA-CM to describe blood pharmacokinetics. Ct = Ae^−αt + Be^−βt(1) where A and B are relevant constants, and α and β are rate constants which were used to calculate as ln(2)/α and ln(2)/β for the half-life of distribution phase and elimination phase, respectively.

PSMA (+) 22Rv1 cells = test: Cell uptake in 22Rv1 cells; type: cell-based, human; settings: 120 min
Procedure: (§1) The 22Rv1 and PC-3 cell lines were plated on 24-well plates (2 × 10^5 cells/well). After incubating for 24 h, the medium was removed and washed with PBS (phosphate buffer saline, 0.01 M). Then, 500 μL medium with 74 KBq of ^64Cu-PSMA-CM was added to the well plates and co-incubated with cells at 37 °C for 10 min, 30 min, 60 min, and 120 min. The medium was then removed and the cells were washed twice with 1 mL of cold PBS. After that, cells were lysed with 1M NaOH, and then the NaOH solution was collected for analysis. For the blocking experiment, cells were co-incubated with ZJ-43 (1 µg/well), a PSMA inhibitor, for 120 min. Five samples of ^64Cu-PSMA-CM were taken out and were thought to be standard. The result was expressed as %IA/10^6 cells. For comparison, the cell uptake experiment of ^64Cu-PSMA-BCH in 22Rv1 cells was performed.

PSMA = target: T1, PSMA (Homo sapiens, UniProt Q04609); test: Binding affinity to PSMA on 22Rv1 cells (dissociation constant); settings: 2 h at 37 °C, one-site total model
T1 construct: endogenous in cells; host or cells: 22Rv1 cells
T1 sequence (Q04609 whole entry): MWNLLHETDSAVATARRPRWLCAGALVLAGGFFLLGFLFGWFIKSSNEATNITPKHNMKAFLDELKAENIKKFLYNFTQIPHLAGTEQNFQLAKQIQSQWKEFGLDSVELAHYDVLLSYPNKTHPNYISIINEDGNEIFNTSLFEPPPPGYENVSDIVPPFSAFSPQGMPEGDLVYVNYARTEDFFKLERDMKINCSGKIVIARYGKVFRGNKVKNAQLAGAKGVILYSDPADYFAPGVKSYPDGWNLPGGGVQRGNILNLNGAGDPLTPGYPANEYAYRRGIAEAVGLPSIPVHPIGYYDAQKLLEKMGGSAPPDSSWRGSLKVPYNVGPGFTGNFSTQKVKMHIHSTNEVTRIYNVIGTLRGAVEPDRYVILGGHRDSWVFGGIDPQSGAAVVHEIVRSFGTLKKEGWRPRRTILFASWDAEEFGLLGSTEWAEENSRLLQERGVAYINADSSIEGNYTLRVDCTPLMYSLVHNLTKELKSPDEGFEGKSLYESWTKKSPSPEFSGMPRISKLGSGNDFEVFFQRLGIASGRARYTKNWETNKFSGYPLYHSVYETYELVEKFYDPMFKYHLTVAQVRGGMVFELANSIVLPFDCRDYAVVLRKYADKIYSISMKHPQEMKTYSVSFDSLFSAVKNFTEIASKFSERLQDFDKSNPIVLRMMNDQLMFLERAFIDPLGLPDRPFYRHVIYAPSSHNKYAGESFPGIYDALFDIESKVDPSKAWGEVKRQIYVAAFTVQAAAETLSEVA
Procedure: The dissociation constant of ^64Cu-PSMA-CM was performed on 22Rv1 cells by adding different concentrations of ^64Cu-PSMA-CM (0.185–74 kBq/mL, 400 μL/well, 4 well/group) to the 24-well plate (2 × 10^5 cells/well). After incubation for 2 h at 37 °C, the medium was removed, the cells were washed twice with cold PBS and then lysed by 0.5 mL NaOH. The radioactivity of NaOH solution was measured and the dissociation constant was calculated using the one-site total model in Graph Pad software (Graph Pad prism 5). Similarly, the dissociation constant of ^64Cu-PSMA-CM was determined with the same protocol.

PSMA (−) PC-3 cells = test: Cell uptake in PC-3 cells; type: cell-based, human
Procedure: as §1

[2] = In vitro stability in saline; type: physicochemical; settings: 37.0 °C, more than 48 h incubation
Procedure: (§2) The in vitro stability of ^64Cu-PSMA-CM was tested in 5% human serum albumin (HSA) and saline at 37.0 °C.
(§3) ^64Cu-PSMA-CM was incubated in saline or 5% human serum albumin (HSA) at 37 °C and the radiochemical purity was determined by radio-HPLC at different points in time (1 h, 4 h, 12 h, 24 h, and 48 h). For the stability in 5% HSA, 15 μL of mixture was taken out and precipitated by ethanol, filtered, and the supernatant was analyzed.

[3] = In vitro stability in 5% human serum albumin; type: in vitro ADME; settings: 37.0 °C, more than 48 h incubation
Procedure: as §2, §3

[4] = test system: mice bearing 22Rv1 tumors; test: Micro-PET imaging in mice bearing 22Rv1 xenograft tumors; type: in vivo
Procedure: An amount of 200 μL of ^64Cu-PSMA-CM (9.32 MBq) was injected into mice bearing 22Rv1 xenograft tumors via tail vein. For blocking, the mice were co-injected with 50 μg of ZJ-43. Imaging was performed on Super Nova PET/CT (PINGSENG, Shanghai, China). The mice were anaesthetized with 3% (v/v) isoflurane, then fixed on the bed at 4 h, 8 h, 12 h, 24 h, and 48 h p.i. Micro-PET scans were conducted with continuous 1% (v/v) isoflurane for 15 min. The images of ^64Cu-PSMA-CM were obtained at different time points and SUV mean values of regions of interest (ROIs) over the heart, kidney, muscle, liver, and tumor were collected. The ratio of tumor-to-non-target organs was then calculated at different time points. To better assess its […] in vivo, a comparison with ^64Cu-PSMA-BCH (5.55 MBq/mouse) of micro-PET imaging was performed in mice bearing 22Rv1 tumor models at 4 h p.i., 12 h p.i., and 24 h p.i. The mean standardized uptake value (SUVmean) in each organ was calculated according to following Formula (2). SUV = Activity VOI (MBq/mL)/Injected dose (MBq) × Body weight (g)(2)

[5] = Partition coefficient (octanol/PBS); type: physicochemical; settings: octanol / PBS (0.1 M, pH 7.4)
Procedure: Amounts of 10 μL of ^64Cu-PSMA-CM in saline (0.37 MBq), 990 μL of phosphate-buffered saline (PBS, 0.1 M, pH 7.4), and 1mL of octanol were mixed in a tube. The mixture was vortexed for 3 min and centrifuged (3000 rpm × 5 min). Then, five samples (100 μL) from each phase were removed and the radioactivity was measured. The experiment was repeated three times. The partition coefficient value was calculated as below: P = (average of counts in octanol/average of counts in PBS), the value was expressed as log P ± SD.

[6] = test system: mice bearing 22Rv1 tumors; test: Biodistribution in 22Rv1 tumor model mice; type: in vivo; settings: for Biodistribution, Liver / Biodistribution, Spleen / Biodistribution, Blood / Biodistribution, Brain / Biodistribution, Heart / Biodistribution, Kidney / Biodistribution, LI (large intestine) / Biodistribution, Lung / Biodistribution, Muscle / Biodistribution, tumor: 22Rv1 male mice
Procedure: Twelve 22Rv1 tumor model mice were randomly divided into four groups and then ^64Cu-PSMA-CM (200 μL, 0.74 MBq/mouse) was injected via tail vein. […] Organs of interest including blood, heart, liver, spleen, lung, kidney, small intestine, large intestine, muscle, brain, and 22Rv1 tumor were collected. The organs were then weighed and measured for their radioactivity. Five samples of the 1% injection volume were taken out as a standard. The final uptake values of each organ were expressed as the percentage of injected dose per gram (%ID/g).

[7] = blood activity–time profile, in Figure 5
[8] = blood activity–time profile, in Figure 5, in h
[9] = blood, mice, 3.7 MBq i.v., two-phase decay fit

O=C([O-])CN1CCN(CC(=O)[O-])CCN(CC(=O)NC(CNC(CC(=O)NC[C@H]2CC[C@H](C(=O)N[C@H](Cc3ccc4ccccc4c3)C(=O)NCCCC[C@H](NC(=O)N[C@@H](CCC(=O)O)C(=O)O)C(=O)O)CC2)C(=O)NCCOCCOCCNC(=O)CCN2C(=O)C=CC2=O)Cc2ccccc2)CC1.[64Cu+2] (stereo partly drawn) [^64Cu-PSMA-CM]
KFast [1, 7]: 4.287
KSlow [1, 7]: 0.1765
Half Life (Fast) [1, 8]: 0.1617
Half Life (Slow) [1, 8]: 3.927
half-life of the distribution phase [1, 9]: 9.6 min
half-life of the elimination phase [1, 9]: 3.93 h
highest uptake value in PSMA (+) 22Rv1 cells (PSMA (+) 22Rv1 cells): 5.45 ± 0.42 IA%/10^6 cells
uptake in 22Rv1 cells (PSMA (+) 22Rv1 cells): 5.45 ± 0.42 %IA/10^6 cells
uptake in 22Rv1 cells blocked by ZJ-43 (PSMA (+) 22Rv1 cells; co-incubated with ZJ-43 (1 µg/well)): 3.38 ± 0.04 IA%/10^6 cells
Kd (PSMA): 4.58 nM
uptake in PSMA (−) PC-3 cells (PSMA (−) PC-3 cells; 120 min): 1.79 ± 0.20 IA%/10^6 cells
blocking of uptake in PC-3 cells by excess of ZJ-43 (PSMA (−) PC-3 cells; p > 0.05): cannot be blocked
radiochemical purity (RCP) after incubation in saline [2]: over 95%
radiochemical purity (RCP) after incubation in 5% HSA [3]: over 95%
SUV mean value in 22Rv1 tumor (highest accumulation) ([4]; 24 h p.i.): 1.88 ± 0.04
uptake in tumors and kidneys when co-injected with excess ZJ-43 ([4]; ZJ-43 50 μg, p < 0.001): significantly decreased
log P [5]: −2.25 ± 0.05
highest uptake in 22Rv1 tumor ([6]; 22Rv1-beared male mice, 24 h p.i.): 14.29 ± 1.44 %ID/g
uptake in kidneys ([6]; 22Rv1-beared male mice, within 1 h): 95.84 ± 3.33 %ID/g
Biodistribution, Liver [6]: 8.50±1.06 ID%/g
Biodistribution, Spleen [6]: 2.65±0.55 ID%/g
Biodistribution, Blood ([6]; 1 h): 16.95 ± 3.05 ID%/g
Biodistribution, Brain ([6]; 1 h): 0.69±0.07 ID%/g
Biodistribution, Heart ([6]; 1 h): 4.49±0.47 ID%/g
Biodistribution, Kidney ([6]; 1 h): 95.84±3.33 ID%/g
Biodistribution, LI (large intestine) ([6]; 1 h): 3.75±0.11 ID%/g
Biodistribution, Liver ([6]; 1 h): 5.34 ± 1.13 ID%/g
Biodistribution, Lung ([6]; 1 h): 9.91±0.43 ID%/g
Biodistribution, Muscle ([6]; 1 h): 1.15±0.09 ID%/g
Biodistribution, Spleen ([6]; 1 h): 8.48±3.35 ID%/g
Biodistribution, tumor ([6]; 1 h): 8.09±1.66 ID%/g
Biodistribution, Blood ([6]; 6 h): 12.33±2.83 ID%/g
Biodistribution, Brain ([6]; 6 h): 0.47±0.05 ID%/g
Biodistribution, Heart ([6]; 6 h): 4.16±0.62 ID%/g
Biodistribution, Kidney ([6]; 6 h): 26.78±0.69 ID%/g
Biodistribution, LI (large intestine) ([6]; 6 h): 2.85±0.06 ID%/g
Biodistribution, Liver ([6]; 6 h): 5.24±0.59 ID%/g
Biodistribution, Lung ([6]; 6 h): 8.47±1.45 ID%/g
Biodistribution, Muscle ([6]; 6 h): 1.22±0.25 ID%/g
Biodistribution, Spleen ([6]; 6 h): 4.63±1.13 ID%/g
Biodistribution, tumor ([6]; 6 h): 8.51±1.99 ID%/g
Biodistribution, Blood ([6]; 12 h): 5.41±0.94 ID%/g
Biodistribution, Brain ([6]; 12 h): 0.44±0.06 ID%/g
Biodistribution, Heart ([6]; 12 h): 1.96±0.35 ID%/g
Biodistribution, Kidney ([6]; 12 h): 14.19±1.40 ID%/g
Biodistribution, LI (large intestine) ([6]; 12 h): 4.32±0.69 ID%/g
Biodistribution, Lung ([6]; 12 h): 6.28±0.72 ID%/g
Biodistribution, Muscle ([6]; 12 h): 1.24±0.77 ID%/g
Biodistribution, tumor ([6]; 12 h): 14.29±1.44 ID%/g
Biodistribution, Blood ([6]; 24 h): 2.83±0.41 ID%/g
Biodistribution, Heart ([6]; 24 h): 0.95±0.21 ID%/g
Biodistribution, Kidney ([6]; 24 h): 8.92±0.41 ID%/g
Biodistribution, LI (large intestine) ([6]; 24 h): 2.81±0.35 ID%/g
Biodistribution, Liver ([6]; 24 h): 6.14±0.23 ID%/g
Biodistribution, Lung ([6]; 24 h): 5.60±0.23 ID%/g
Biodistribution, Spleen ([6]; 24 h): 2.31±0.26 ID%/g
Biodistribution, tumor ([6]; 24 h): 10.57±1.23 ID%/g
